ChEMBL document CHEMBL5303762, “Data for DCP probe BI-8668” (2023)
One block for each compound: values may come before it.

Assays:
[1] = molecular target: T1, Alpha-1A adrenergic receptor (Homo sapiens) (UniProt P35348); details: Compound concentration 10.0 uM
T1 sequence (whole entry): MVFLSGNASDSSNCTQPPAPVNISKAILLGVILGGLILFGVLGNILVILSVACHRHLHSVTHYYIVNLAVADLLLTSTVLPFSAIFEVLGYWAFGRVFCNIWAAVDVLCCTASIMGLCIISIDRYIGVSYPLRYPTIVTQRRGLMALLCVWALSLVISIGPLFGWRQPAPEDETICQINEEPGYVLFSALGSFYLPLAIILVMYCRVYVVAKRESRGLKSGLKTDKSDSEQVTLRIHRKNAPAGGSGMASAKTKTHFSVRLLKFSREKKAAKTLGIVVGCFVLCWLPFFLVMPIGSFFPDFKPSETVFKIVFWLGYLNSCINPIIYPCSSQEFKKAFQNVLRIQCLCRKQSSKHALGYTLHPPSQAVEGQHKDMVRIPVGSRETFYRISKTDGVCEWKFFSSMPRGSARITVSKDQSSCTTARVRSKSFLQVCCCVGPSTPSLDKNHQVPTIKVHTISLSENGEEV

[2] = molecular target: 5-hydroxytryptamine receptor 1B (Rattus norvegicus) (UniProt P28564); test: 5HT1B/R Eurofins SafetyScreen44 (BI); details: Compound concentration 10.0 uM
[3] = molecular target: T2, Muscarinic acetylcholine receptor M2 (Homo sapiens) (UniProt P08172); details: Compound concentration 10.0 uM
T2 sequence (whole entry): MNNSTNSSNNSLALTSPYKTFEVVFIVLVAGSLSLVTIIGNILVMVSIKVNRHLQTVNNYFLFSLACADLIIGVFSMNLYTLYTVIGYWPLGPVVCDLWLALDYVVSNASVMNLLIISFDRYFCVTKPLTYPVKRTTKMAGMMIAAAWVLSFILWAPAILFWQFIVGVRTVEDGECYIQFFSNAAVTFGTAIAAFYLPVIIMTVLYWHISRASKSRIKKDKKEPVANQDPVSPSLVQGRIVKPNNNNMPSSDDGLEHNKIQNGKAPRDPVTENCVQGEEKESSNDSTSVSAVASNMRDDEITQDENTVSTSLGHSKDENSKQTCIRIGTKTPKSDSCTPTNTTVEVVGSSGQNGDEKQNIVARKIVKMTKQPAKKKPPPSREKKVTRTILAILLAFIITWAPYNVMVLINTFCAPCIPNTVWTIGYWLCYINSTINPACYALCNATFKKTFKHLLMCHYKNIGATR

[4] = molecular target: 5-hydroxytryptamine receptor 2A (Homo sapiens) (UniProt P28223); details: Compound concentration 10.0 uM
[5] = molecular target: D(3) dopamine receptor (Homo sapiens) (UniProt P35462); details: Compound concentration 10.0 uM
[6] = molecular target: Delta-type opioid receptor (Homo sapiens) (UniProt P41143); details: Compound concentration 10.0 uM
[7] = molecular target: GABA-A receptor; anion channel (Rattus norvegicus) (UniProt O09028+P15431+P18506+P18508+P19969+P20236+P23574+P23576+P28471+P28473+P30191+P62813+P63079+P63138+Q91ZM7+Q9ES14); details: Compound concentration 10.0 uM
[8] = molecular target: T1, Alpha-1A adrenergic receptor (Homo sapiens); test: ALPHA1A(H)AGON Eurofins SafetyScreen44 (BI); details: filed as agonist, Compound concentration 10.0 uM
[9] = molecular target: T2, Muscarinic acetylcholine receptor M2 (Homo sapiens); test: M2(H)AGON Eurofins SafetyScreen44 (BI); details: filed as agonist, Compound concentration 10.0 uM
[10] = molecular target: Histamine H4 receptor (Homo sapiens) (UniProt Q9H3N8); details: Compound concentration 10.0 uM
[11] = molecular target: D(2) dopamine receptor (Homo sapiens) (UniProt P14416); details: Compound concentration 10.0 uM
Histamine H3 receptor [12] = molecular target: T3, Histamine H3 receptor (Homo sapiens, UniProt Q9Y5N1); details: Compound concentration 10.0 uM
Histamine H3 receptor [13] = molecular target: T3, Histamine H3 receptor; test: GPCRScan assay: inhibition of H3; set-up: radioligand conc. used [nm] 0.5 – 1.0, parental cells HEK Flp-In
[14] = molecular target: Histamine H1 receptor (Homo sapiens) (UniProt P35367); details: Compound concentration 10.0 uM
[15] = molecular target: 5-hydroxytryptamine receptor 2C (Homo sapiens) (UniProt P28335); details: Compound concentration 10.0 uM
[16] = molecular target: 5-hydroxytryptamine receptor 5A (Homo sapiens) (UniProt P47898); details: Compound concentration 10.0 uM
[17] = molecular target: Alpha-2B adrenergic receptor (Homo sapiens) (UniProt P18089); details: Compound concentration 10.0 uM
[18] = molecular target: T2, Muscarinic acetylcholine receptor M2 (Homo sapiens); test: M2(H)ANTAG Eurofins SafetyScreen44 (BI); details: filed as antagonist, Compound concentration 10.0 uM
D(1B) dopamine receptor = D(1B) dopamine receptor (Homo sapiens, UniProt P21918); test: GPCRScan assay: inhibition of D5; set-up: radioligand conc. used [nm] 2.0 – 3.0, parental cells HEKT
[19] = molecular target: Sodium-dependent serotonin transporter (Homo sapiens) (UniProt P31645); details: Compound concentration 10.0 uM
[20] = molecular target: Sigma intracellular receptor 2 (Homo sapiens) (UniProt Q5BJF2); details: Compound concentration 10.0 uM
[21] = molecular target: Muscarinic acetylcholine receptor M3 (Homo sapiens) (UniProt P20309); test: M3(H)ANTAG Eurofins SafetyScreen44 (BI); details: filed as antagonist, Compound concentration 10.0 uM
[22] = molecular target: Sodium-dependent noradrenaline transporter (Homo sapiens) (UniProt P23975); details: Compound concentration 10.0 uM
[23] = molecular target: Kappa-type opioid receptor (Homo sapiens) (UniProt P41145); test: KAPPA(KOP)_HU Eurofins SafetyScreen44 (BI); details: Compound concentration 10.0 uM
[24] = molecular target: Prostaglandin G/H synthase 2 (Homo sapiens) (UniProt P35354); test: COX-2 Eurofins SafetyScreen44 (BI); details: Compound concentration 10.0 uM
[25] = molecular target: 5-hydroxytryptamine receptor 1B (Homo sapiens) (UniProt P28222); test: 5HT1B(H) Eurofins SafetyScreen44 (BI); details: filed as antagonist, Compound concentration 10.0 uM
[26] = molecular target: Prostaglandin G/H synthase 1 (Homo sapiens) (UniProt P23219); test: COX-1 Eurofins SafetyScreen44 (BI); details: Compound concentration 10.0 uM

T3 sequence (Q9Y5N1 whole entry): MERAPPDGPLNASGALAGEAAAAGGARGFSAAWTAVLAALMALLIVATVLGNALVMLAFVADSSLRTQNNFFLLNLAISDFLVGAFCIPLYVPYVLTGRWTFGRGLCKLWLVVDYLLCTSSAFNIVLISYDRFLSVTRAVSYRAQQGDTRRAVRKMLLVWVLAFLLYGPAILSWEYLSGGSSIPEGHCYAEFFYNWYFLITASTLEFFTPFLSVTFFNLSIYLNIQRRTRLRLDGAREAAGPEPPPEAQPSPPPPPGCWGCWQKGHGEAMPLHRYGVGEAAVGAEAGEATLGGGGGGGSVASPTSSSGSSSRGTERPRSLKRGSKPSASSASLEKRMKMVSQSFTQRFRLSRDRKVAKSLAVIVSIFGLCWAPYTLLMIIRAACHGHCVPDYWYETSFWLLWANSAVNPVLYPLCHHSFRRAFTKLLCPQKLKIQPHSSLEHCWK
D(1B) dopamine receptor, sequence (P21918 whole entry): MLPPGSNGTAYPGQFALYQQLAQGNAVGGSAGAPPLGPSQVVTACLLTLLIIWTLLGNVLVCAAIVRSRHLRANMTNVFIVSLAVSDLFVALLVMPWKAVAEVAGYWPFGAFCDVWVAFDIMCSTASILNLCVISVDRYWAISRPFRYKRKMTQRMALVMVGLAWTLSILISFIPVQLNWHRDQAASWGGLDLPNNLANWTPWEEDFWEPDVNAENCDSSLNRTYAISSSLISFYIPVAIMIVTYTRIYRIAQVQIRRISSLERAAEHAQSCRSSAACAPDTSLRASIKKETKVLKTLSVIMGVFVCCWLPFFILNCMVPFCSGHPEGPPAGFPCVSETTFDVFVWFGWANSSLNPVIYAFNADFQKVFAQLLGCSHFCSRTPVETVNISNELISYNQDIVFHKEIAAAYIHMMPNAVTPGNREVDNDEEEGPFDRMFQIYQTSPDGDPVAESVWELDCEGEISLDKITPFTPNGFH
Histamine H1 receptor (Homo sapiens), sequence (P35367 whole entry): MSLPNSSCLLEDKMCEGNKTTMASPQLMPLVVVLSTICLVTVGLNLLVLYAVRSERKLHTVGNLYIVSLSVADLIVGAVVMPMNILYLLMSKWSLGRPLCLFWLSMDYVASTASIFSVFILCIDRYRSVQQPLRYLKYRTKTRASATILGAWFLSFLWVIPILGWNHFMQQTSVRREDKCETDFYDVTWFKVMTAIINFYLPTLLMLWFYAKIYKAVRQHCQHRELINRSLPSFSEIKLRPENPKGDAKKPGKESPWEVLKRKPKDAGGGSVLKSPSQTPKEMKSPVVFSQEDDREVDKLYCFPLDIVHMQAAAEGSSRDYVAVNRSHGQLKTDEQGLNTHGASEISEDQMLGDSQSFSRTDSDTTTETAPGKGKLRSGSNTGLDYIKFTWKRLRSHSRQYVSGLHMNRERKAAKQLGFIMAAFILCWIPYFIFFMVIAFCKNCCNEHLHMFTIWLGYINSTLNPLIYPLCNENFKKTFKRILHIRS
Sodium-dependent serotonin transporter (Homo sapiens), sequence (P31645 whole entry, looked up): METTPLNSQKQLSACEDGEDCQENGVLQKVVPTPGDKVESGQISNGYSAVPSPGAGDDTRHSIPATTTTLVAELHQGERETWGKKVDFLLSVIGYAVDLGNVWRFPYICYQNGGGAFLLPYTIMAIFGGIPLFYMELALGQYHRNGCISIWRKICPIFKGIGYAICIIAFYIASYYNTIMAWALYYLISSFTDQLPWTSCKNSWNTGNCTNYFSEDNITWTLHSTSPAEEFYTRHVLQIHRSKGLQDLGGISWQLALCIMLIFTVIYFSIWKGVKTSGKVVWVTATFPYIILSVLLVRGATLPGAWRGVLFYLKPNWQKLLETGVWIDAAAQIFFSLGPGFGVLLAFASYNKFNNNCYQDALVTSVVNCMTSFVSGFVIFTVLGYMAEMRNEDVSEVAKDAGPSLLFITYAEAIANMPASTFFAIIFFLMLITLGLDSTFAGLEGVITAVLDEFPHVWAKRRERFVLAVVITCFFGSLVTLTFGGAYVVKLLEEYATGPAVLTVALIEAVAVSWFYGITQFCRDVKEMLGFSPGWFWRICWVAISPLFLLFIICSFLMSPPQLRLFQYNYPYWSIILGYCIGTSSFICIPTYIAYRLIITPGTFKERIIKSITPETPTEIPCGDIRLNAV
Delta-type opioid receptor (Homo sapiens), sequence (P41143 whole entry): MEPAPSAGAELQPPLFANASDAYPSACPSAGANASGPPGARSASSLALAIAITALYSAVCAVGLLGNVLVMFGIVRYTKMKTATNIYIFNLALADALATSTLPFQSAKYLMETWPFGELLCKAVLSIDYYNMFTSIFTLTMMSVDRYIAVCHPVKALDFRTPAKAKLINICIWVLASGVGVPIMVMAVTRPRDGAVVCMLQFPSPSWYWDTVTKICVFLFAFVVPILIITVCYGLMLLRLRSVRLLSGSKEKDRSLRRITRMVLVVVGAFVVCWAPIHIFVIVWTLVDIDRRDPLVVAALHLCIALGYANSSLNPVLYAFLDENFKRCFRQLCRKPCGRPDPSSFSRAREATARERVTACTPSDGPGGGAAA
D(2) dopamine receptor (Homo sapiens), sequence (P14416 whole entry): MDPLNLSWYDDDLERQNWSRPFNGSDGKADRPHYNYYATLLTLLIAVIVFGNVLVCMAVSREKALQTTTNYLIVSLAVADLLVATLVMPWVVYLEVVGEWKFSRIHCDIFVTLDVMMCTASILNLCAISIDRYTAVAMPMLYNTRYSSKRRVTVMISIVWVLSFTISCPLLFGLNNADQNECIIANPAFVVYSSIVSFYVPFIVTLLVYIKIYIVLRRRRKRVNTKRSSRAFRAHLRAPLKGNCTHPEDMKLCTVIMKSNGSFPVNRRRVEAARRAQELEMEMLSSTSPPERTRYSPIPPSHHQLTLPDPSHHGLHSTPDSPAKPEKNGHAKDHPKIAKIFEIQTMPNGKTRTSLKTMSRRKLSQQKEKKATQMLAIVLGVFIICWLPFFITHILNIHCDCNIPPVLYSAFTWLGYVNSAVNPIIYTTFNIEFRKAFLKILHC
5-hydroxytryptamine receptor 2C (Homo sapiens), sequence (P28335 whole entry): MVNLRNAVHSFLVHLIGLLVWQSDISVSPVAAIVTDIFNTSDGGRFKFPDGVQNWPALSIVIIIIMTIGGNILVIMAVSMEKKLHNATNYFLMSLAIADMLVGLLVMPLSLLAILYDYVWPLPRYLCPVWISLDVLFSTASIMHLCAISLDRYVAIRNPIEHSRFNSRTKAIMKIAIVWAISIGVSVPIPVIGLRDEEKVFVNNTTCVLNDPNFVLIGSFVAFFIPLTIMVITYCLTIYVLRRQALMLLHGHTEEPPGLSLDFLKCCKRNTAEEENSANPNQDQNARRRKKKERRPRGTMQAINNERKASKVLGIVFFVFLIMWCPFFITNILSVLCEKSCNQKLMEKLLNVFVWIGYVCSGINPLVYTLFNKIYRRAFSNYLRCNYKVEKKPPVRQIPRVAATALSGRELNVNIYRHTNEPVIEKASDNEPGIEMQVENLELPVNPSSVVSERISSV
5-hydroxytryptamine receptor 2A (Homo sapiens), sequence (P28223 whole entry): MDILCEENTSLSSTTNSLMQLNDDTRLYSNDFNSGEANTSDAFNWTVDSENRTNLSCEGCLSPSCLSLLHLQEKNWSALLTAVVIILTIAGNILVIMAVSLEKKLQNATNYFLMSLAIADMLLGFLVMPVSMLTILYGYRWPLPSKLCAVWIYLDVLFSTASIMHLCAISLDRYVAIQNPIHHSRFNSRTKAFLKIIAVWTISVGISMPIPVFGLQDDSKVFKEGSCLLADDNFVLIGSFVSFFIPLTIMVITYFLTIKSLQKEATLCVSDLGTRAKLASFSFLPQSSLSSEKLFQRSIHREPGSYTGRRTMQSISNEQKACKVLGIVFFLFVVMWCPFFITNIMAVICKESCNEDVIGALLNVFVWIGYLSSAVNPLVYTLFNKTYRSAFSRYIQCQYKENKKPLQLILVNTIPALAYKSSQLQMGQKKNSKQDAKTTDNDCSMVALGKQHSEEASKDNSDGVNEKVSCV
Sigma intracellular receptor 2 (Homo sapiens), sequence (Q5BJF2 whole entry): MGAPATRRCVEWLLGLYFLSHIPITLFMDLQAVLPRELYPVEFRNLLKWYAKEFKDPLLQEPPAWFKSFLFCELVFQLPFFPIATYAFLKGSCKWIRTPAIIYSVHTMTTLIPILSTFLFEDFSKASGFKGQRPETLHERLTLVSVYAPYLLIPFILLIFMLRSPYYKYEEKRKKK
D(3) dopamine receptor (Homo sapiens), sequence (P35462 whole entry): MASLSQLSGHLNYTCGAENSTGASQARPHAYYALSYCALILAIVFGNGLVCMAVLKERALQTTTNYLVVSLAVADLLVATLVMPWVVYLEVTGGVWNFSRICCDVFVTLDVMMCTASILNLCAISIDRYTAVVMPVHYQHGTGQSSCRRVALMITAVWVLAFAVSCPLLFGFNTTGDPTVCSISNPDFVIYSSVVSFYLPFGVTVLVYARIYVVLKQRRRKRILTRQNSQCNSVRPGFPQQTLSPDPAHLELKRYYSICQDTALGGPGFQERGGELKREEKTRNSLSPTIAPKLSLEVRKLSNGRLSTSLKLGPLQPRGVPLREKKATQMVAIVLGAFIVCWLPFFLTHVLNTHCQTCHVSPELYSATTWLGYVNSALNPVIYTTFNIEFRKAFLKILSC
Alpha-2B adrenergic receptor (Homo sapiens), sequence (P18089 whole entry): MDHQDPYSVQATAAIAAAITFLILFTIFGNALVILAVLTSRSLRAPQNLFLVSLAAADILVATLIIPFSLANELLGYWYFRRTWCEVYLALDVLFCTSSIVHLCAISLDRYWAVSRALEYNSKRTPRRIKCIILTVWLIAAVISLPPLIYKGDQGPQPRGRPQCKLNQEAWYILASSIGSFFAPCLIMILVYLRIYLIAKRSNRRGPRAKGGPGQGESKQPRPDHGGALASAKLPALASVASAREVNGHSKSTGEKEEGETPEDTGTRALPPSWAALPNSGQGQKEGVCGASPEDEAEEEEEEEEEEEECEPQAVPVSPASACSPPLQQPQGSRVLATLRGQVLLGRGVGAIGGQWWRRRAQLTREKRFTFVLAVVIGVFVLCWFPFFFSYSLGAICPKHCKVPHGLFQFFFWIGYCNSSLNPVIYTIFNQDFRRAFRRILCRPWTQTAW

inhibition [1]: -1.19% | inhibition [3]: 44.6% | inhibition [4]: -1.15% | inhibition [5]: 8.95% | inhibition [6]: 3.99% | inhibition [7]: 22.4% | inhibition [10]: -7.37% | inhibition [11]: -8.76% | inhibition (Histamine H3 receptor [12]): 85.4% | Ki (Histamine H3 receptor [13]; read-out: Ki): 0.257 µM | Ki (Histamine H3 receptor [13]; read-out: pKi (converted)): 0.219 µM | inhibition [14]: -1.28% | inhibition [15]: 1.01% | inhibition [16]: -6.08% | inhibition [17]: 0.45% | Ki (D(1B) dopamine receptor; read-out: Ki): 4.07 µM | Ki (D(1B) dopamine receptor; read-out: pKi (converted)): 4.07 µM | inhibition [19]: 8.39% | inhibition [20]: -0.91% | inhibition [22]: -7.54%
SMILES: CCn1c(CNC(=O)c2nc(Cl)cnc2N)[n+](CC)c2ccc(C(=O)N(C)CCN(C)C)cc21
residual activity [2]: 113% | residual activity [8]: 99.6% | residual activity [9]: 85.2% | residual activity [18]: 91% | residual activity [21]: 96%

SMILES: CCn1c(CNC(=O)c2ncc(C)nc2N)[n+](CC)c2ccc(C(=O)N(C)CN(C)C)cc21
residual activity [23]: 97% | residual activity [24]: 82% | residual activity [25]: 94% | residual activity [26]: 84%
